Results on 15 compounds are retold here after PubChem BioAssay (NCI).

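Results reflect a 48-hour exposure of cells in 96-well plates to compound at five concentrations. TGI is the concentration that stops growth completely.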

One may read the TGI as the concentration giving total growth inhibition. Low values mean greater sensitivity of the cells, high ones lower sensitivity of the cells.

Test in all cases: DTP human tumour cell line panel, 48 h
The subject of experiment [1] is SN12C renal.
For experiment [2], the system named is T-47D breast.
Experiment [3] has as its system HT29 colon.
The test system of experiment [4] is RPMI-8226 leukemia.
Experiment [5] concerns HOP-62 NSCLC.
Experiment [6] has as its system SNB-19 CNS.
In experiment [7] the test system is UACC-257 melanoma.
Experiment [8] relates to MALME-3M melanoma.
Experiment [9] has as its system OVCAR-5 ovarian.
Experiment [10] relates to SR leukemia.

Regarding `CC(C)(C)OC(=O)NCC(=O)N1CCCN(C(=O)CNC(=O)OC(C)(C)C)CC1`, the TGI in experiment [1], in [2], in experiment [3], in [4], in experiment [5] and in experiment [6] was over 100 µM each time. The TGI in experiment [7], in experiment [8] and in [9] was over 100 µM in each case.

With `CN1CCCCC(C(O)(c2ccccc2)c2ccccc2)C1=O` (stereo not given), the concentration for total growth inhibition (TGI) in experiment [1] is over 100 µM; in experiment [3], over 100 µM; in [4] it was 65.7 µM; in experiment [5], over 100 µM; in experiment [6], over 100 µM; in [10], over 100 µM. For the same compound, the TGI in [7], in experiment [8] and in [9] was over 100 µM throughout.

Take `COc1ccc(/C=N/n2c(Cc3ccc(Cl)cc3)n[nH]c2=O)c(OC)c1`: the concentration for total growth inhibition (TGI) in [2] was over 100 µM; in [3] it was 75.1 µM; in experiment [4] it was over 100 µM; in experiment [5], over 100 µM; in experiment [6], 48.4 µM; in [7], over 100 µM. Besides, the TGI in [8] and in [9] was over 100 µM each time.

`Cc1ccc2nc(Cl)c(/C=N/N3C(=O)/C(=C/c4ccc(N(C)C)cc4)N=C3c3ccccc3)cc2c1`: the total growth inhibition concentration (TGI) in experiment [1] was over 100 µM; in experiment [2], over 100 µM; in experiment [3] it was over 100 µM; in experiment [4], 65.3 µM; in [5], over 100 µM; in experiment [6] it was over 100 µM. Besides, the concentration for total growth inhibition (TGI) in [10], in [7] and in experiment [9] was over 100 µM throughout.

For `Clc1ncnc2c1ncn2CCCCCCCCCCCCn1cnc2c(Cl)ncnc21`, the TGI in [1] amounted to 37.5 µM; in experiment [3], 21.5 µM; in experiment [4], 25.4 µM; in [5], 33 µM; in [6], 27.8 µM; in experiment [10], 3.82 µM. Moreover, the TGI is 11.9 µM in experiment [7] and 72.7 µM in [9].

With `CS(=O)(=O)O.[Ag]`, the TGI in experiment [1] was determined as 38.7 µM; in experiment [2], 5.5 µM; in experiment [3], 39.3 µM; in experiment [4], 6.29 µM; in experiment [5] it was 65.9 µM; in experiment [6] it was 78.7 µM. The total growth inhibition concentration (TGI) in experiment [7] was 24.4 µM; in experiment [8] it was 3.79 µM; in experiment [9], 35 µM.

In the case of `CC(=O)OCC1OC(c2nnc(C)o2)=CC(OC(C)=O)C1OC(C)=O` (stereo not given), the concentration for total growth inhibition (TGI) in [1], in [3], in [4], in [5], in [6] and in [10] was over 100 µM throughout. Further, the total growth inhibition concentration (TGI) in [7], in [8] and in experiment [9] was over 100 µM in each case.

Consider `CC(=O)NC1=C(C)C(=O)c2c(nc3n2CC[C@H]3OC(C)=O)C1=O`, for which the TGI is 3.17 µM in [1]; 1.37 µM in [2]; 8.13 µM in experiment [3]; 7.4 µM in [4]; 28.3 µM in experiment [5]; 10.8 µM in [6]. In addition, the total growth inhibition concentration (TGI) turned out to be 2.2 µM in [7], 3.14 µM in experiment [8] and 7.34 µM in experiment [9].

For the compound `C/C=C\C(CC(=O)NCCC1CN(C(=O)c2ccccc2)c2ccccc21)CC(=O)OC` (stereo not given), the TGI in [2], in experiment [3], in experiment [4], in experiment [5], in experiment [6] and in experiment [7] was over 100 µM each time. Besides, the total growth inhibition concentration (TGI) in experiment [8] and in experiment [9] was over 100 µM each time.

Consider `C[C@H](CCC1=NCCN1)[C@H]1CC[C@H]2[C@@H]3CC[C@@H]4C[C@H](O)CC[C@]4(C)[C@H]3C[C@H](O)[C@]12C`, for which the TGI in experiment [1] amounted to 34 µM; in [2] it was 30.6 µM; in experiment [3] it was 22.3 µM; in experiment [4], 30 µM; in [5], 28.9 µM; in [6], 21 µM. Moreover, the total growth inhibition concentration (TGI) is 28.7 µM in [7], 27.9 µM in experiment [8] and 28.1 µM in experiment [9].

As for `Nc1nc2cc(CNc3ccc(C(=O)NC(CCC(=O)O)C(=O)O)cc3)ccc2nc1-c1ccccc1` (stereo not given), the total growth inhibition concentration (TGI) in experiment [1], in [2], in experiment [3], in experiment [4], in experiment [5] and in experiment [6] was over 10 µM in each case. Moreover, the TGI in experiment [7], in [8] and in [9] was over 10 µM throughout.

For `NC(=O)NCCCC(NC(=O)OCCCCCn1ccc(=O)[nH]c1=O)C(=O)O` (stereo not given), the TGI in [1], in experiment [2], in experiment [3], in experiment [4], in experiment [5] and in experiment [6] was over 100 µM throughout. Besides, the TGI in experiment [10], in experiment [7] and in experiment [9] was over 100 µM each time.

For `COc1ccc2c(c1)-c1oc3ccccc3c(=O)c1CO2`, the total growth inhibition concentration (TGI) in experiment [1] was 77.9 µM; in [2], 68.5 µM; in [3], over 100 µM; in experiment [4], over 100 µM; in experiment [5], over 100 µM; in [7] it was 99.3 µM. In addition, the TGI in experiment [8] and in experiment [9] was over 100 µM in each case.

Consider `COC(=O)c1cccc(C(=O)OC)c1`, for which the total growth inhibition concentration (TGI) in [1], in experiment [3], in [4], in experiment [5], in [6] and in [10] was over 100 µM in each case. Also, the TGI in [7], in experiment [8] and in experiment [9] was over 100 µM throughout.

For the compound `COc1nc2[nH]ccc2c(=O)n1C`, the total growth inhibition concentration (TGI) in [1], in [3], in [4], in experiment [6], in experiment [10] and in experiment [7] was over 100 µM each time. Also, the TGI in experiment [8] and in [9] was over 100 µM each time.
